In one test the target is T1, full length GRK5 (Homo sapiens, UniProt P34947).
T1 construct: 6/2 fold concentrated full length GRK5 (Millipore, #14-714) in reaction buffer; purchased Millipore 14-714
Description: GRK5 kinase activity assay, ADP Glo Kinase Assay technology (Promega). The format is biochemical. To be noted: group II; ADP Glo Kinase Assay (Table 9-B). Put shortly: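 Casein (10 μM) phosphorylation with 100 μM ATP in 20 mM MES pH 6.0, 1 mM DTT, 10 mM MgCl2, 0.01% Tween20, 120 min at room temperature; ADP quantified by ADP-Glo luminescence.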
For orientation: ADP-Glo first removes unused ATP, then detects ADP through luciferase.

In test [1] the test system is beta-TC6 insulinoma cells. The experiment in a line: Insulin release by beta-TC6 cells, rat/mouse insulin ELISA, high glucose. The class given is cell-based. The note with it: Mus musculus, Beta-TC6, 2 h, group II; 5 μM, 2 h, high glucose (4.5 g/L); % increase in regard to DMSO control (set at 0%). The procedure: (§1) Release of insulin was detected using a rat/mouse insulin ELISA.
After incubation, the supernatant of the beta-TC6 insulinoma cells was diluted 1:20. The insulin release was measured with rat/mouse insulin ELISA (Merck Millipore Darmstadt, Cat. # EZRMI-13K) by following the manufacture protocol. The enzyme activity of the horseradish peroxidase of the immobilized biotinylated antibodies was monitored spectrophotometrically by the increased absorbency at 490 nm, and corrected by the absorbency at 610 nm.
as §1
The effect on the insulin release of each kinase depletion was monitored by using a rat/mouse insulin ELISA.
For the validation of the negative modulating kinases SCYL1, GRK5, and ADCK1, the target genes were depleted using four different siRNA-sequences each (FIG. 2A-D). The gene-depletion was measured via mRNA-levels after 72 hours while the insulin release was measured using a rat/mouse insulin ELISA after two hours incubation.

The target in another test is T2, GRK5 (Homo sapiens, UniProt P34947).
T2 construct: purchased Millipore (KinaseProfiler service)
T2 sequence (P34947 whole entry): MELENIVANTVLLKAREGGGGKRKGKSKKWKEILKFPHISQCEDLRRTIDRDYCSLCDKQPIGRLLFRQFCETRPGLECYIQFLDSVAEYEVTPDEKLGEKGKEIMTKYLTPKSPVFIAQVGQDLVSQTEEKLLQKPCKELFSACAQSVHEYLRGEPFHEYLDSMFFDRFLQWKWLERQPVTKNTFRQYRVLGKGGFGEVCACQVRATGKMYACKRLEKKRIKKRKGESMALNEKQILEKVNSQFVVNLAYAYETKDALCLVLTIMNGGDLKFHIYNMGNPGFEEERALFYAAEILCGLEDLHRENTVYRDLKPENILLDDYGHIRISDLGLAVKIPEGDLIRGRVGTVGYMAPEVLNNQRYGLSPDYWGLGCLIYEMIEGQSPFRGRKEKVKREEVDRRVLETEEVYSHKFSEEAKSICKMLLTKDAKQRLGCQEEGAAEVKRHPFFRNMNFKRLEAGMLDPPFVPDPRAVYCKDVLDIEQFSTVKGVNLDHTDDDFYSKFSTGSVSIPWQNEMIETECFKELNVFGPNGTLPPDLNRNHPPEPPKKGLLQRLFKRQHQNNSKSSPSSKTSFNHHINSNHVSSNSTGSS
The experiment in a line: Millipore KinaseProfiler radiometric filtration binding assay. The format is biochemical. The note with it: group II; Millipore KinaseProfiler (Table 10). The procedure: (§2) As alternative, IC50 values are determined by a radiometric based filtration binding assay, namely Millipore KinaseProfiler™. GRK5 is incubated with 8 mM MOPS pH7.0, 0.2 mM EDTA, 2 mg/mL casein, 10 mM MgAcetate and […] (specific activity approx. 500 cpm/pmol, concentration as required). The reaction is initiated by the addition of the MgATP mix. After incubation for 40 minutes at room temperature, the reaction is stopped by the addition of 3% phosphoric acid solution. 10 μL of the reaction is then spotted onto a P30 filtermat and washed three times for 5 minutes in 75 mM phosphoric acid and once in methanol prior to drying and scintillation counting.
as §2, with “IC50” for “As alternative, IC50”, “pH 7.0,” for “pH7.0,”

The next test deals with 3T3-L1 cells. Description: Cell viability assay (CellTiter-Glo / automated cell number) in 3T3-L1. The class given is cell-based. To be noted: Mus musculus, read-out: Inhibition of cell viability IC50. Put shortly:
(§3)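 ATP read by CellTiter-Glo luminescence after 10 min lysis at RT. Imaging variant: 10000 cells/well treated 72 h, then fixed and stained with Hoechst 33342 (20 μg/ml, 30 min, 37 °C). Nuclei counted automatically over six fields at 10×, compared with untreated controls, giving IC50.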
On the technique in general: Cellular ATP, detected with luciferase, serves as a proxy for viable cell number.

For another test, the system named is HepG2 cells. Description: Cell viability assay (CellTiter-Glo / automated cell number) in HepG2. The format is cell-based. To be noted: Homo sapiens, read-out: Inhibition of cell viability IC50. The method, boiled down:
as §3

For test [2], the system named is C2C12 cells. Description: Cell viability assay (CellTiter-Glo / automated cell number) in C2C12. The format is cell-based. To be noted: Mus musculus, read-out: Inhibition of cell viability IC50. The method, boiled down: as §3
Another test deals with beta TC6 cells. Description: Cell viability assay (CellTiter-Glo / automated cell number) in beta TC6. The class given is cell-based. To be noted: Mus musculus, read-out: Inhibition of cell viability IC50. Put shortly:
as §3

Test [3] concerns C2C12 cells. Description: 2-NBDG glucose uptake in C2C12 cells (flow cytometry). The class given is cell-based, mouse. To be noted: group II; at 5 μM, 1 h, 100 μM 2-NBDG. The procedure:
(§4) 2-NBDG is a fluorescently-labeled deoxyglucose analog that is commonly used to directly monitor glucose uptake by living cells. For 2-NBDG detection, cells were cultured for 1 h together with 5 μM of a small molecule in glucose free media supplied with 100 μM 2-NBDG at 37° C. before collecting. Furthermore, as internal controls, samples of glucose free media, rFc4espectively glucose free media with test compound, were tested. Subsequently, cells were washed, trypsinized and harvested in ice-cold PBS before centrifuged at 1.6×10^3 rpm at 4° C. Cells were analyzed by flow cytometry (FACS Calibur, BD Bioscience, respectively a BD Accuri® C6 Flow Cytometer).
as §4, with “an inventive compound” for “a small molecule”, “media,” for “media, rFc4espectively”, “compound, respectively glucose free media supplied with 100 μM 2-NBDG” for “compound,”
On the technique in general: Flow cytometry measures light scatter and fluorescence of single cells or particles in a stream.

The next test concerns 3T3-L1 pre-adipocytes. Description: 2-NBDG uptake in 3T3-L1 pre-adipocytes. The class given is cell-based. To be noted: GRK5 screen compounds.
In a further test the test system is beta-TC6 cells. Description: Insulin HTRF assay on beta-TC6 supernatant (relative activity Ar). The class given is cell-based, mouse. The note with it: group I. An excerpt:
For further screening of compounds derived from compounds described above for their ability to regulate insulin release an insulin HTRF® (Homogeneous Time-Resolved Fluorescence; Cisbio International, France) was used. This assay is based on two antibodies against insulin binding to different epitopes of insulin. One of these antibodies is coupled to Europium (Ab-Eu-Cryptate) and the other one to the fluorophore XL665 (Ab-XL665). If the insulin is secreted into the supernatant of cell culture, both antibodies can bind to insulin and come therefore into close proximity, which allows upon excitation that energy transfer between (FRET) the long-life fluorescent donor Europium (cryptate) and the acceptors XL665. FRET increases proportionally with insulin concentration.
On day 1, 15 k beta-TC6 cells per well were seeded for 24 or 48 h in 50 μL complete medium. On day 2 or respective on day 3, the medium is removed and cells are washed with 60 μL 1×PBS and 20 μL induction buffer is added using BioTek washer. Subsequently, 10 μL Sunitininb (5-μM f.c.) or the test compound in induction buffer; 0.5% f.c. DMSO (CyBi-well) is transferred to the cells. The cells are then incubated at 37° C. for 2, 3, 4 h. […]
First 10 μL supernatant is transferred from the cell plates in HTRF plates (CyBi-well). […] Finally HTRF is measured on ViewLux ultra high throughput microplate imager (PerkinElmer). […]

For orientation: IC50 means the concentration needed to halve the response being measured.

Structures are written as SMILES.

T1 sequence (P34947 whole entry): as above

Consider `CCC(NC(=O)c1ccc2c(c1)/C(=C/c1[nH]c(C)c(C(=O)N3CCN(C)CC3)c1C)C(=O)N2)c1ccc(Cl)cc1` (centres unmarked) [II.12, (3Z)-N-[1-(4-chlorophenyl)propyl]-3-({3,5-dimethyl-4-[(4-methylpiperazin-1-yl)carbonyl]-1H-pyrrol-2-yl}methylene)-2-oxoindoline-5-carboxamide], for which the IC50 against full length GRK5 and at GRK5 was 100 to 1000 nM in each case. This compound displayed an activation at 5 µM in [1] of 214%.
Take `CC[C@@H](NC(=O)c1ccc2c(c1)/C(=C/c1[nH]c(C)c(C(=O)N3CCCCC3)c1C)C(=O)N2)c1ccccc1` [II.63, (3Z)-3-{[3,5-dimethyl-4-(piperidin-1-ylcarbonyl)-1H-pyrrol-2-yl]methylene)-2-oxo-N-[(1R)-1-phenylpropyl]indoline-5-carboxamide]: the IC50 in the test with 3T3-L1 cells was 940 nM; against full length GRK5, 100 to 1000 nM; with HepG2 cells, 1250 nM; in the test on C2C12 cells [2] it was 1.72 µM; in the test with beta TC6 cells, 1260 nM; at GRK5, 100 to 1000 nM.
In the case of `COc1ccc([C@@H](C)NC(=O)c2ccc3c(c2)/C(=C/Nc2ccc(CN4CCCCC4)cc2)C(=O)N3)cc1` [II.70, (3Z)-N-[(1R)-1-(4-methoxyphenyl)ethyl]-2-oxo-3-({[4-(piperidin-1-ylmethyl)phenyl]amino}methylene)indoline-5-carboxamide], the IC50 in the test on 3T3-L1 cells was 2160 nM; against full length GRK5, 100 to 1000 nM; in the test on HepG2 cells, 1810 nM; in the test with C2C12 cells [2], more than 10 µM; in the test on beta TC6 cells, 1480 nM; at GRK5 it was 100 to 1000 nM.
With `C[C@@H](c1ccccc1)N(C)C(=O)c1ccc2c(c1)/C(=C/Nc1ccc(CN3CCCCC3)cc1)C(=O)N2` [II.71, (3Z)-N-methyl-2-oxo-N-[(1S)-1-phenylethyl]-3-({[4-(piperidin-1-ylmethyl)phenyl]amino}methylene)indoline-5-carboxamide], the IC50 in the test with 3T3-L1 cells was 3100 nM; against full length GRK5, 2000 to 10000 nM; in the test with HepG2 cells it was 2530 nM; with C2C12 cells [2], 4.26 µM; with beta TC6 cells it was 2750 nM; at GRK5 it was 2000 to 10000 nM.
In the case of `Cc1ccc([C@@H](C)NC(=O)c2ccc3c(c2)/C(=C/Nc2ccc(CN4CCCCC4)cc2)C(=O)N3)cc1` [II.72, (3Z)-N-[(1R)-1-(4-methylphenyl)ethyl]-2-oxo-3-({[4-(piperidin-1-ylmethyl)phenyl]amino}methylene)indoline-5-carboxamide], the IC50 in the test with 3T3-L1 cells is 1540 nM; against full length GRK5, 100 to 1000 nM; with HepG2 cells, 2070 nM; in the test on C2C12 cells [2], more than 10 µM; in the test with beta TC6 cells it was 1270 nM; at GRK5 it was 100 to 1000 nM.
Regarding `C[C@@H](NC(=O)c1ccc2c(c1)/C(=C/Nc1ccc(CN3CCCCC3)cc1)C(=O)N2)c1ccc(Cl)cc1` [II.73, (3Z)-N-[(1R)-1-(4-chlorophenyl)ethyl]-2-oxo-3-({[4-(piperidin-1-ylmethyl)phenyl]amino}methylene)indoline-5-carboxamide], the IC50 is 2730 nM in the test on 3T3-L1 cells; 100 to 1000 nM against full length GRK5; 890 nM in the test on HepG2 cells; 2.33 µM in the test on C2C12 cells [2]; 730 nM in the test on beta TC6 cells; 100 to 1000 nM on GRK5. In addition, the “2-NBDG Glucose Uptake [%]” value with C2C12 cells [3] came out at 127%.
Consider `C[C@@H](NC(=O)c1ccc2c(c1)/C(=C/c1ccc(C(=O)N3CCN(C)CC3)cc1)C(=O)N2)c1ccccc1` [II.143, (3Z)-3-[4-(4-methyl-piperazine-1-carbonyl)-benzylidene]-2-oxo-2,3-dihydro-1H-indole-5-carboxylic acid (1R)-(1-phenyl-ethyl)-amide], for which the “2-NBDG Glucose Uptake [%]” value in the test on C2C12 cells [3] is reported as 72%.
Regarding `Nc1cccc(-c2cc3cnc(Nc4cccnc4)cc3[nH]2)c1` [compound 2, 2-(3-aminophenyl)-N-(3-pyridyl)-1H-pyrrolo[3,2-c]pyridin-6-amine], the “Glucose uptake (2-NBDG) in 3T3-L1 pre-adipocytes” value in the test with 3T3-L1 pre-adipocytes was “stimulated”.
As for `COc1cc(Nc2nccc3c2cc(-c2ccc(C(=O)N(C)C)cc2)n3C)cc(C(F)(F)F)c1` [compound 220, N,N-dimethyl-4-[1-methyl-4-(3-methoxy-5-(trifuloromethyl)phenylamino)pyrrolo[3,2-c]pyridin-2-yl]benzamide], in the test on beta-TC6 cells, the “Ar (relative activity)” value was “+ (0% < Ar < 30%)”.
`CS(=O)(=O)c1ccc(Nc2nccc3[nH]c(-c4ccccc4)cc23)cc1` [compound 324, N-(4-methylsulfonylphenyl)-2-phenyl-1H-pyrrolo[3,2-c]pyridin-4-annine]: the “Ar (relative activity)” value in the test on beta-TC6 cells is “+++ (50% ≦ Ar < 100%)”.
